The values that follow come from patent publication US12029738B2, “Antiproliferative compounds and methods of use thereof” (Celgene Corporation, priority 2017, dated 2024).

One data set concerns the target T1, α1A adrenergic receptor (Homo sapiens, UniProt P35348).
T1 construct: host or cells: CHO cells
T1 sequence (P35348 1-466): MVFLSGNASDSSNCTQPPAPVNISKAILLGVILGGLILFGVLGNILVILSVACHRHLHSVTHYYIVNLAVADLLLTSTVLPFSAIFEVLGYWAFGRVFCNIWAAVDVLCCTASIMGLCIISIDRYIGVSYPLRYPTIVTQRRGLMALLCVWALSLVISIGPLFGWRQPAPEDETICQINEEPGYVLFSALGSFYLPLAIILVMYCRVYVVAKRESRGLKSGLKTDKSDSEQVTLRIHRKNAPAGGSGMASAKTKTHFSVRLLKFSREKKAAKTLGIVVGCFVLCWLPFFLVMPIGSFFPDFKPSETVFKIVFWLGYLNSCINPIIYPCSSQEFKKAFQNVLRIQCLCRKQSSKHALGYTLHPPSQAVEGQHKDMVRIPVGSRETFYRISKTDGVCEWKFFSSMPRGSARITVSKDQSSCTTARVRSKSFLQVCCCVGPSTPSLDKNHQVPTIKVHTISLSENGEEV
Briefly: α1A adrenergic receptor antagonist assay (calcium mobilization, CHO cells). The settings on record: epinephrine 3 nM; calcium mobilization; read-out: Antagonism IC50 α1A. It is filed as cell-based. Here is the method: (§1) α1 Adrenergic and Dopamine D2 Receptors. Methods: Binding and functional assays for α1 adrenergic and dopamine D2 receptors were performed by Eurofins Cerep according to their methods.
Antagonist activity. The antagonistic effects of test compounds on the α1A and α1B adrenergic receptors were measured using human receptor-transfected Chinese hamster ovary (CHO) cells. Antagonist activity was determined by measuring compound effect on agonist (epinephrine)-induced calcium mobilization in the α1A receptor assay or cAMP levels in the α1B receptor assay. In these experiments, CHO cells were incubated in duplicate at room temperature with test article and epinephrine at 3 nM in the α1A receptor assays or at 3000 nM in the α1B receptor assay. Compound A was tested in the α1A receptor assay at 0.01-30 μM. […] Compound 1 and Compound 2 were assayed at 0.03 to 30 μM in the α1A receptor assay and 0.03 to 100 μM in the α1B receptor assay. In the α1A receptor assay, cytosolic calcium levels were measured fluorometrically using the fluorescent probe, Fluo4 Direct. Intracellular cAMP levels in the α1B adrenergic receptor assay were measured by homogenous time-resolved fluorescence (HTRF). The antagonism IC50 was defined as the concentration causing a half-maximum inhibition of control agonist response.
For orientation: A change in cytosolic calcium serves as a functional read-out for many receptors and channels.

Data set [1] relates to non-selective α1 adrenergic receptor. Briefly: α1 adrenergic receptor radioligand binding ([3H]prazosin). The following applies: rat cerebral cortex. As to the method:
as §1
α1 Adrenergic Receptor. Binding at 10 μM. The binding assay evaluated the affinity of test article for the non-selective α1 adrenergic receptor in rat cerebral cortex. Membrane homogenates of cerebral cortex were incubated in duplicate for 60 minutes at room temperature with 0.25 nM [^3H]prazosin in the absence or presence of test articles at 10 μM. After the incubation period, samples were filtered through glass fiber filters, the filters dried and then counted for radioactivity using a scintillation counter. Results are expressed as mean percent inhibition of control radioligand binding.
Binding IC50. […] Compound A was tested at 0.01-30 μM. […] Compound 1 and Compound 2, the S-enantiomer of Compound 1, were assayed at 0.03-100 μM. Radioactivity was measured as described above. The IC50 was defined as the concentration causing a half-maximum inhibition of control specific binding.

The nature of another data set: in vivo. The settings on record: rat. As to the method: 7-Day Exploratory Toxicology Studies in Male Rats. Methods. Male CD-IGS rats (n=5/group for toxicologic assessment; n=4/group for toxicokinetic assessment) were dosed once daily by oral gavage (10 mL/kg) with vehicle (0.5% HPMC/0.25% Tween-80 in 50 mM citrate, pH 2.6-2.8) or test articles (Compound A or Compound 1) at 100, 300 or 1000 mg/kg/day for 7 consecutive days. Blood samples for toxicokinetics were collected on Days 1 and 7. […] Body weight was recorded at randomization, prior to dosing on Days 1-7 and prior to necropsy. Samples for hematology and serum chemistry analyses were collected on Day 8, approximately 24 h after the last dose. Rats were euthanized on Day 8 for necropsy. Anatomic pathology evaluation consisted of gross observation, organ weight and histopathologic examination of select tissues.

Data set [2] addresses T2, dopamine D2S receptor (Homo sapiens, UniProt P14416).
T2 construct: host or cells: HEK-293 cells (membrane homogenates)
Briefly: Dopamine D2S receptor radioligand binding (HEK-293). Here is the method:
as §1
Dopamine D2 Receptor. Binding at 10 μM. The binding assay evaluated the affinity of test articles for the dopamine D2 receptor in transfected human embryonic kidney (HEK)-293 cells. For determining the binding in the D2S receptor assay, test article was incubated with 0.3 nM [^3H] methylspiperone or 1 nM [^3H] 7-hydroxy-2-N,N-dipropylaminotetralin (7-OH-DPAT). [3H] Methylspiperone at 0.3 nM also was used as control ligand in the D2L binding assay. Cell membrane homogenates were incubated in duplicate at room temperature for 60 minutes with ligand in the absence or presence of test articles at 10 μM. After the incubation period, samples were filtered through glass fiber filters, the filters dried and then counted for radioactivity using a scintillation counter. Results are expressed as mean percent inhibition of control radioligand binding.
Binding IC50. To determine the binding IC50 in the D2 receptor assays, HEK-293 were tested as described above but with varying concentrations of test article. Compound A was tested at 0.01-30 μM in the D2S radioligand binding assay. […] Compound 1 was assayed at 0.03-100 μM in both the D2S and D2L assays, while Compound 2 was tested at 0.03-100 μM in the D2S assay and 0.01-100 μM in the D2L assays. The IC50 was defined as the concentration causing a half-maximum inhibition of control specific binding.

For data set [3], the target named is T2, dopamine D2S receptor. Briefly: Dopamine D2S receptor agonist assay (impedance, HEK-293). It is filed as cell-based. The following applies: impedance; versus dopamine control; read-out: D2S Agonism EC50. Here is the method:
as §1
Agonist activity. The agonism of test compounds on the dopamine D2S receptor was assessed using human receptor-transfected HEK-293 cells. Agonist activity was determined by measuring compound effect on impedance modulation. In these experiments, HEK-293 cells were incubated in duplicate at 28° C. with test article. Compound A was tested at 0.01-30 μM. […] Dopamine (3 μM) was used as an agonist control. Impedance measurements were monitored for 10 minutes after ligand addition using cellular dielectric spectroscopy. The EC50 was defined as the concentration causing a half-maximum response, compared to the control agonist (dopamine) response.

In data set [4] the test system is neutrophil progenitors (BM CD34+ cells from healthy donors). Put plainly: In vitro maturation of neutrophil progenitors, dexamethasone alone and with Compound 2. Here is the method: Methods. To understand the effects of dexamethasone on neutropenia, in vitro cultures of BM CD34^+ cells from healthy donors were used to evaluate the neutropenic events mediated by dexamethasone as a single agent and in combination with Compound 2. To define the effects of dexamethasone monotherapy in this model, 1, 10, or 100 nM dexamethasone exposure was maintained for 30 h comparing 7 different dosing schedules (FIG. 11). For combination studies, single exposure Compound 2 (1, 10, or 100 nM) and dexamethasone were maintained for 6 and 30 h, respectively, starting at Day 13 of culture.

Data set [5] relates to lenalidomide-resistant NCI-H929 (H929-1051) multiple myeloma/plasmacytoma tumors. Briefly: H929-1051 xenograft, Compound 2 alone and with dexamethasone. It is filed as in vivo, mouse. The following applies: single agent dexamethasone 0.5 mg/kg oral once daily.
Data set [6] has the same test system. Briefly: H929-1051 xenograft, Compound 2 alone and with bortezomib. It is filed as in vivo, mouse.
Data set [7] concerns multiple myeloma and plasma cell leukemia cell lines (OPM2.P10, RPMI.8226, L363, JJN-3). Put plainly: Combination with proteasome inhibitor pulse (flow cytometry, 72 h). The following applies: L363; 1 h pulse. It is filed as cell-based, human. For orientation: Flow cytometry measures light scatter and fluorescence of single cells or particles in a stream.
Description: Twenty four hours prior to treatment with a proteasome inhibitor and test compound, an appropriate number of cells were split to a concentration of 0.2×10^6/mL in fresh media to allow for exponential growth. On the day of treatment, compounds were freshly solvated in DMSO. Proteasome inhibitors bortezomib or carfilzomib were diluted and added to pre-warmed culture media at the final working concentrations of 150 nM or 300 nM for bortezomib and 300 nM or 550 nM for carfilzomib. Proteasome inhibitor concentrations were determined based upon clinical Cmax concentrations as well as previous studies in each cell line which determined the duration and concentration of PI required to inhibit a specific amount of β5 proteasome activity. Cells were counted and an appropriate number were placed into media containing proteasome inhibitor and thoroughly mixed. After incubation for 1 h at 37° C., 5% CO2, cells were washed two times with 40 mL of complete media to remove the proteasome inhibitor. […] Plated cells were cultured at 37° C., 5% C02, for the remainder of the experiment, up to 72 h. Every 24 h, proteasome inhibition was monitored by the Cell-Based Proteasome-Glo Assay. Proliferation and apoptosis were measured at 72 h by flow cytometry. Cells were stained with APC Annexin-V and 7-AAD to enumerate the number of viable cells remaining in culture.
An in vitro cell assay was established in order to mimic the clinical pharmacokinetics (PK) and pharmacodynamics (PD) of exposure to proteasome inhibitors bortezomib and carfilzomib.

T2 sequence (P14416 1-414 isoform P14416-2): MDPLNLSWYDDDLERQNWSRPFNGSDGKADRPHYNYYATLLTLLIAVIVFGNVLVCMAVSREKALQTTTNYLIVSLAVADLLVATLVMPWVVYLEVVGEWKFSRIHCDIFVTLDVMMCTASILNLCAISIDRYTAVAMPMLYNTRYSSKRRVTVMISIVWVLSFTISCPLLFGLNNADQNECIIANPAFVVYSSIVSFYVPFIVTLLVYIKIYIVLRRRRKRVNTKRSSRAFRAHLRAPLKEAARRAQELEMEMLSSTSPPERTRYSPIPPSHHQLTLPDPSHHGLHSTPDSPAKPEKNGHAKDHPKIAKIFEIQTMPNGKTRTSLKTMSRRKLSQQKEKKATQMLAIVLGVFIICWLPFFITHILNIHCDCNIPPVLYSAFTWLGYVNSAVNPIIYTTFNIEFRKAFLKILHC

For the molecule `O=C1CCC(N2Cc3c(OCc4ccc(CN5CCN(c6ccc(F)cc6F)CC5)cc4)cccc3C2=O)C(=O)N1` (racemic) [Compound A, 3-(4-((4-((4-(2,4-difluorophenyl)piperazin-1-yl)methyl)benzyl)oxy)-1-oxoisoindolin-2-yl)piperidine-2,6-dione], the IC50 at α1A adrenergic receptor amounted to 14 nM; in data set [1] ([3H]prazosin), 64 nM; on dopamine D2S receptor [2] (read-out: D2S Binding IC50), 150 nM. The “Adrenergic α1 (non-selective) % Inhibition (10 μM)” value in [1] (10 μM, 0.25 nM [3H]prazosin) is given as 102%. Further, the AUC(0-t) came to 441 µM·h in the data set “in vivo” (male, CD-IGS, po, 100 mg/kg/day); 1230 µM·h in “in vivo” (male, CD-IGS, po, 300 mg/kg/day); 1760 µM·h in “in vivo” (male, CD-IGS, po, 1000 mg/kg/day). Also, the “dose at which abnormal stomach content (dry, feed material) was observed grossly” value in the data set “in vivo” (male, CD-IGS, po, 7 days) is reported as no less than 100 mg/kg. The “dose at which clinical signs of toxicity (hunched posture, piloerection, decreased activity) and decreased body weight were observed” value in “in vivo” (male, CD-IGS, po, 7 days) is recorded as no less than 300 mg/kg. For the same molecule, the “test article-related microscopic findings” value in the data set “in vivo” is “minimal multifocal myocardial necrosis and mixed cell infiltration in hearts of rats at all dose levels”. In addition, at dopamine D2S receptor [2] (read-out: Dopamine D2S % Inhibition (10 μM)), the inhibition at 10 µM worked out at 99%. Moreover, at dopamine D2S receptor [3], the concentration giving a half-maximal response (EC50) turned out to be 16 nM.
On to `C[C@@H]1C[C@H]2[C@@H]3CCC4=CC(=O)C=C[C@]4(C)[C@@]3(F)[C@@H](O)C[C@]2(C)[C@@]1(O)C(=O)CO` [Dexamethasone, dexamethasone], for which the “viability of immature and mature neutrophils” value in data set [4] (alone or in combination) is reported as “not affected”. For the same molecule, the “maturation of neutrophil progenitors / late-stage neutrophil precursors” value in data set [4] (single agent, 1, 10, 100 nM, dexamethasone 30 h, Compound 2 6 h) was “not affected”. The “tumor growth inhibition / tumor volume reduction (TVR)” value in [5] was 20%.
For `CC(C)C[C@H](NC(=O)[C@H](Cc1ccccc1)NC(=O)c1cnccn1)B(O)O` [bortezomib], the “tumor growth inhibition / tumor volume reduction (TVR)” value in data set [6] (single agent bortezomib 1 mg/kg iv single dose day 31, day 50) is 60%. The “day by which tumors reached approximately 2000 mm^3” value in data set [6] (single agent, 1 mg/kg) was 66 days. For the same molecule, the “single agent activity on cell viability” value in [7] is “no single agent activity on cell viability”.

In general, IC50 refers to the concentration at which inhibition is half-maximal. As a reminder, the AUC(0-t) is exposure summed from dosing to a finite time, without extrapolation to infinity. Low values mean less exposure, high ones more exposure. The term inhibition denotes the share of the control response that was lost under treatment. What is called EC50 is the concentration giving half of the maximal effect.
